Measurements as given in patent US12162935B2, “Regimens, compositions and methods with capsaicin and TNF-alpha inhibitor” (priority 2018, dated 2024).

Experiments:
[1] = system: UB/OC-1 cells; assay: Western blot of STAT1, STAT3 and JAK2 phosphorylation; type: cell-based, mouse
[2] = system: Wistar rats; assay: ABR threshold shifts, cisplatin-induced hearing loss; type: in vivo, rat
Method: Adult male Wistar rats (200-350 g) (from Envigo) were used for this study. Rats were housed in a temperature controlled room with a twelve hour light/dark cycle. They had free access to commercial food and water provided by the SIU Laboratory Animal Care facility.
Prior to experiments, rats were anesthetized with ketamine HCl/xylazine mixture (24.6/3 mg/kg) and then placed in a sound-attenuation chamber (Industrial Acoustic Company, Inc.). Body temperature of the rats was maintained at 37° C. with an animal blanket system. Pretreatment auditory brainstem responses (ABRs) was performed using an IHS-High-frequency System (Intelligent Hearing Systems, Miami, FL). The rats were exposed to acoustic stimuli via HIS transducers that were directly placed at the entrance of the ear canal. ABR thresholds were obtained for 5 ms duration tone bursts at 8, 16 and 32 kHz at a rate of 50/s. Thresholds were determined by visually produced lowest intensity evoked potentials (EP) that progressed in 10 dB steps. Evoked potentials (Eps) were amplified to 200,000×, and were band pass filtered (100-3000 Hz) and averaged over 1024 sweeps [Mukherjea et al., 2010].
At the end of auditory testing, the anesthetized animals were decapitated and the cochlea harvested. The SIU Laboratory Animal Care and Use Committee approved all animal procedures.
Male Wistar rats were anesthetized using ketamine/xylazine cocktail. The tympanic membrane was punctured as described in [Mukherjea et al., 2010].

[3] = system: UB/OC-1 cells; assay: Cell viability assay (MTS assay); type: cell-based
Method: The in vitro UB/OC1 cell proliferation was performed by using the CellTiter 96® AQueous One Solution Cell Proliferation Assay Kit (Promega, Madison, WI), according to the manufacturer's instructions. 3,500 cells were seeded per well into a 96-well plate. […] After 48 h, 20 μl of CellTiter 96 AQueous One Solution reagent was added to each well in 100 μl of total volume of media. Cells were incubated for 1 h, and recorded absorbance at 490 nm using an ELISA plate reader. The absorbance is directly proportional to the number of living cells and is expressed as a percent relative to vehicle-treated cells.

[4] = system: ERK1/2; assay: ERK1/2 activation by western blotting; type: cell-based, mouse; conditions: 100 μM H2O2 or TNF-α 0.1 μg/ml
[5] = target: TRPV1 (Homo sapiens, UniProt Q8NER1); assay: Ca2+ imaging (Fluo-4AM) in HEKVR1 cells; type: cell-based
TRPV1, sequence (Q8NER1 whole entry, species assumed): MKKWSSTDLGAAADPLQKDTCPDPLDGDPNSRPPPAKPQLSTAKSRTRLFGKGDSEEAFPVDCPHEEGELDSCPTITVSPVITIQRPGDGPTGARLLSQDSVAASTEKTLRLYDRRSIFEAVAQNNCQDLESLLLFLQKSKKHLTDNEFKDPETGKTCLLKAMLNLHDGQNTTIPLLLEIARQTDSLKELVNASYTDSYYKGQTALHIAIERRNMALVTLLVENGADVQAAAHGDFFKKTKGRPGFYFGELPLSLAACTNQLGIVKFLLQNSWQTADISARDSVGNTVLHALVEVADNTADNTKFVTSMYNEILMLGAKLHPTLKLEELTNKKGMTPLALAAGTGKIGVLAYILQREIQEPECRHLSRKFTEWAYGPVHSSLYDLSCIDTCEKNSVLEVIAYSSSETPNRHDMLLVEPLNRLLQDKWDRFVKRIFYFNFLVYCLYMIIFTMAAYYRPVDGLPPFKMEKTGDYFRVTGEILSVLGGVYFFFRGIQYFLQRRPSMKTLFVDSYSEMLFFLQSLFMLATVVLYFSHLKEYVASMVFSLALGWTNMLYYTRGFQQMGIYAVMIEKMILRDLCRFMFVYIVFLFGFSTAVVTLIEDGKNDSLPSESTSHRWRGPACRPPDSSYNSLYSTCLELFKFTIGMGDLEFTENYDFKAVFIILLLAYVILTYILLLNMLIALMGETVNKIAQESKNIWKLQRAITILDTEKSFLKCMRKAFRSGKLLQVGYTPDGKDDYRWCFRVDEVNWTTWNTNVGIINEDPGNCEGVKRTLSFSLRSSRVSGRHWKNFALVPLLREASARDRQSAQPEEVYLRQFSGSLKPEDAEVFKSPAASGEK
Text: (§1) NE has been linked to immediate increase in ROS generation and persistent oxidative stress in the cochlea2, leading to generation of reactive oxygen species such as: hydroxyl […] (OH^−), superoxide anion (O^2—) and hydrogen peroxide (H2O2).

[6] = system: UB/OC-1 cells; assay: Ca2+ imaging (Fluo-4AM) in UB/OC-1 cells; type: cell-based, mouse
Text: as §1

[7] = system: UB/OC1 cells; assay: Cell death by TUNEL
Method: UB/OC1 cells were treated with either scrambled siRNA or TRPV1 siRNA for 24 h.

[8] = system: outer hair cells (OHCs); assay: Outer hair cell damage by SEM and whole mount hair cell count; type: in vivo, rat; conditions: basal turn, cisplatin
Text: Immediately after completion of post-treatment ABRs, rats were euthanized and their cochleae were harvested and the specimens processed as described previously by [Kamimura et al.]. Sputter-coated cochlea were viewed and photographed with a Hitachi S-500 scanning electron microscope (Hitachi Ltd.). The resulting scanning electron micrographs were examined to determine qualitative morphological characteristics in various regions including the basal, middle, and apical turns of the rat cochlea.
Two representative areas of the basal turn, middle turn, and apex and hook portion were photographed. In each area, outer hair cells (OHCs) were counted in an area that was 10 pillar cell heads in length. The results are presented as the percentage hair cell damage per cochlear turn. At least three cochleae from different animals per treatment group were used.
To study the organization of the outer hair cells and inner hair cells, the cochlear whole mount technique was used. The cochleae was fixed in fresh 4% paraformaldehyde overnight, and then decalcified in […] EDTA for 2 weeks, (pH 7.3) while stirring at room temperature for 2 weeks. After decalcification, the cochleae was microdissected into basal, middle, and apical turns for whole-mount preparation.
For further processing, segments were washed with 1×PBS twice for 5 mins. For blocking, the segments were incubated in 10% blocking serum (horse serum) for 3 hrs at room temperature. The segments were incubated with primary antibody in 0.2% Triton prepared in PBS and refrigerated overnight. The following day, the segments were washed in PBS (three washes) for 5 mins each wash. The segments were washed in secondary antibody for 2 hrs at room temperature in the dark. The antibodies were then washed with PBS (three washes). Glass coverslips were then mounted on the segments with ProLong Diamond Antifade Mountant (Thermo Fisher Scientific) and incubated them at room temperature overnight and then stored them in 4 degrees. Images were procured using a Leica confocal microscope (Buffalo Grove, IL).
For hair cell count in whole mount preparations, two to three random areas from the basal turn from each treatment group separately were selected. Hair cells were counted in […] segments of the cochlea respectively. Counts were averaged across treatment group. This was further normalized as % of PBS (control) by taking the values of control as 100%.

[9] = system: rat cochlea; assay: Cochlear gene expression by q-PCR (cisplatin study); type: in vivo; conditions: 72 h following cisplatin
[10] = system: rat cochlea; assay: Immunolabelling of mid-modiolar cochlear sections, fluorescent intensity analyses; type: in vivo
Method: Cochleae were perfused with a 4% paraformaldehyde solution, cochleae were decalcified for 7-10 days in 120 mM EDTA, embedded them in paraffin and then sectioned the specimens [Mukherjea et al., 2010]. Slides were deparaffined, rehydrated and then stained with primary and secondary antibodies. Glass coverslips were mounted on the specimens with ProLong Diamond mounting medium. Images were obtained using a Leica confocal microscope (Buffalo Grove, IL).
Image J software was used to analyze the mean gray area for the various images. These values were then used to quantify the increase or decrease in % fluorescence intensity of the various regions of the samples compared to control.

[11] = system: UMSCC-10b cells; assay: SCID mouse xenograft model; type: in vivo; conditions: single agent: cisplatin 2 mg/kg ip or oral capsaicin 0.5 mg/kg
Method: SCID mice (from Envigo, 5-6 weeks of age) were injected subcutaneously with 1.5×10^6 mycoplasma-free UMSCC 10B cells in one flank. […] At the time of each treatment, tumor volumes were calculated based on the formula: volume=width2×(length/2) [Jajoo et al.]. Mice were killed 24 h after the eleventh treatment. All procedures were performed in accordance with relevant guidelines and regulations of SIU School of Medicine.

[12] = BCTC 100 nM 45 min then capsaicin 2.5 μM
[13] = capsaicin 2.5 μM 30 min and/or cisplatin 2.5 μM 45 min (FIG. 5.E)
[14] = TNF-α 0.1 μg/ml 60 seconds prior to 100 μM H2O2, till 5 minutes

Cc1c(C(=O)NN2CCOCC2)nn(-c2ccc(Cl)cc2Cl)c1-c1ccc(I)cc1 [AM281]
capsaicin-induced Ser^727 p-STAT1 [1]: had no effect | capsaicin-induced Tyr p-STAT3 [1]: did not alter

COc1ccc(C(=O)c2c(C)n(CCN3CCOCC3)c3cc(I)ccc23)cc1 [AM630]
ABR thresholds ([2]; AM630 trans-tympanic alone or in combination with capsaicin): significant increases in ABR thresholds | effect on capsaicin protection against cisplatin-induced hearing loss ([2]; AM630 trans-tympanic before oral capsaicin 20 mg/kg and cisplatin): reversed the protective effect of oral capsaicin | capsaicin-induced Ser^727 p-STAT1 [1]: significantly decreased | capsaicin-induced Tyr p-STAT3 [1]: significantly decreased | JWH015 increase of p-STAT3 ([1]; AM630 10 μM 30 min before JWH015): reversed | cell viability compared to capsaicin ([3]; AM630 30 minutes prior to capsaicin for 24 h): significantly decreased cell viability

CC(C)(C)c1ccc(NC(=O)N2CCN(c3ncccc3Cl)CC2)cc1 [BCTC, N-(4-tertiarybutylphenyl)-4-(3-chloropyridin-2-yl) tetrahydropyrazine-1(2H)-carbox-amide]
TRPV1 mediated STAT1-Ser^727 phosphorylation [1, 12]: decreases | Tyr STAT3 phosphorylation [1, 12]: without significantly altering

OO [H2O2, hydrogen peroxide]
time of highest ERK activation post treatment [4]: 60 min

CCCn1c(C)c(C(=O)c2cccc3ccccc23)c2ccccc21 [JWH015]
p-STAT3 ([1]; JWH015 10 μM 30 min): increased p-STAT3

COc1cccc(-c2cc(=O)c3ccccc3o2)c1N [PD98059]
H2O2-induced calcium release ([5]; 10 μM PD98059 pre-treatment): little or no calcium release | H2O2-induced calcium release ([6]; 10 μM PD98059 pre-treatment): little or no calcium release | cell death/apoptosis by 100 μM H2O2 [7]: significantly decreased cell death

O=[N+]([O-])c1ccc2c(c1)S(=O)(=O)C=C2 [STATTIC]
Tyr^705 p-STAT3 levels ([1]; STATTIC 100 nM): significantly reduced | cell death ([3]; STATTIC 100 nM alone): did not induce cell death | protective action of capsaicin against cisplatin-induced cell killing ([3]; STATTIC 100 nM pre-treatment): abrogated the protective action of capsaicin

N.N.[Cl][Pt][Cl] [cisplatin]
loss or damage of outer hair cells compared to vehicle controls ([8]; SEM): ten-fold | outer hair cell death ([8]; whole mount, myosin VIIa): 43±4% | increases in TRPV1, NOX3 and INOS expression [9]: 2-3 fold | CB2 labelling in the OHCs, SGs and SVA ([10]; single agent): did not significantly change | TRPV1, NOX3 and iNOS labelling in the OHCs, SG and SVA ([10]; single agent vs control): significantly increased | Tyr p-STAT3 ([1]; 2.5 μM, at 120 minutes): sustained inhibition | JAK2 phosphorylation ([1]; 2.5 μM, time course): persistent and significant reductions | Ser^727 p-STAT1 ([1]; 2.5 μM, up to 120 min): persistent increase | p-STAT1 [1, 13]: 120±2% | p-STAT3 [1, 13]: 106.5±2.5% | tumor growth (volume, size, weight) [11]: significantly reduced

TNF-α
H2O2-induced calcium release [5, 14]: prolonged sustained calcium release | H2O2-induced calcium release [6, 14]: prolonged sustained calcium release | time of highest ERK activation post treatment [4]: 30 min
